Like-named read-outs stand apart in the source and are kept apart here.
How the values were obtained:
platelets [1] = settings: cited from earlier work
myocardial infarction = settings: large clinical studies; cited from earlier work
platelets [2] = settings: cited from earlier work; remark: listed apart in the source
blood platelets = test: Arachidonic acid induced platelet aggregation (turbidimetric) in volunteers taking DHEA; type: in vivo, human
From the text: (§1) Referring now to the drawings and, more particularly to FIG. 1, two sample aggregometer tracings are shown which help illustrate the methods used by the inventors to analyze turbidimetric data. Aggregometers are well known research tools and the aggregometer used in the experiments discussed below was a Sienco dual chamber platelet aggregometer. A blood sample which is to be analyzed is drawn from volunteer donors into a 1/8 volume of acid-citrate-dextrose (an anticoagulant used to keep platelets from aggregation during preparative stages). For the in vitro experiments discussed below, the volunteer donors had not taken any medication for ten days prior to submitting the blood sample. The blood is then centrifuged at low speed to sediment red and white blood cells, leaving a fraction enriched in platelets called platelet-rich plasma (PRP). The platelet count was determined electronically using a Coulter counter The final concentration of platelets for a test sample was adjusted to 250,000 platelets/μL fluid by the addition of platelet-poor plasma.
(§2) The aggregometer acts essentially like a spectrophotometer to measure the turbidity of the platelet suspension as a function of the change in light transmission recorded over time. Prior to making turbidimetric measurements, the test samples were heated to 37° C. (body temperature) and stirred at a constant rate. Inhibitors and/or agonists are added to the test sample in very small quantities so as to minimize the dilutional effect. An important object of the present invention was showing that DHEA and DHEA-S are inhibitors of platelet aggregation. Arachidonic acid, available from Biodata Corp of Hatboro, Pennsylvania, is a well known agonist of platelets (i.e., the addition of arachidonic acid to platelets causes aggregation). In the experiments, DHEA and DHEA-S were added to the test sample prior to adding the arachidonic acid so that the platelets could be mixed with the inhibitor before any aggregation initiation caused by the arachidonic acid agonist occurred. Typically, 0.2-0.4 mM arachidonic acid was used to start platelet aggregation.
The aggregometer was calibrated such that the test samples, which contained 250,000 platelets/μl fluid, allowed 0% light transmission while Platelet Poor Plasma, which is essentially devoid of platelets, allowed 100% light transmission. […]
The overall rate of aggregation is determined in part by the LAG time and in part by the rate of the rapid aggregation phase. While the LAG time can easily be determined from the turbidimetric spectra, the rate of rapid aggregation phase is technically difficult to measure. […] Therefore, the experiments discussed below have primarily utilized the T1/2MAX measurement to quantitatively analyze the affect of DHEA and DHEA-S as platelet aggregation inhibitors. […]

[3] = Serum DHEA and DHEA-S levels by radio-immunoassay (RIA), oral DHEA in normal male volunteers; type: in vivo; settings: human, 300 mg/day, DHEA group, 300 mg per day orally (100 mg three times a day), second week, read-out: mean serum DHEA level
Description: In vivo experimentation has been conducted with DHEA using a test group of ten male human being subjects. The in vivo experimentation comprised a double blind placebo controlled trial where ten normal male volunteers whose ages ranged between 22 and 37 years old were randomly divided into two five membered groups where the average age for each group was 25 years. In the in vivo experiment, the DHEA group received 300 mg of DHEA per day in the form of 100 mg capsules taken orally three times a day. The placebo group took placebo capsules which looked identical to the capsules containing DHEA three times a day. The DHEA and placebo capsules were prepared by the investigational pharmacy at the Medical College of Virginia and the code identifying which patients took DHEA and which took placebo was maintained by the pharmacy until the study was completed such that neither the patients nor the investigators were aware of who was taking DHEA or placebo. Each of the participants in the trial were told not to alter their lifestyles for the duration of the study and at the conclusion of the experiment each participant said that they had not done so. […]
Serum DHEA and DHEA-S levels for the patients was determined before the experiment began and at several later times during the experiment. […]

[4] = system: Thromboxane A2 (TxA2) synthesis, measured as Thromboxane B2 (TxB2); test: Thromboxane production (TxB2 RIA) in platelet rich plasma after arachidonic acid; type: cell-based, human; settings: for TxB2 produced: approximately three minutes incubation
From the text: As discussed above, activation of platelets by arachidonic acid typically results in the generation of Thromboxane A2 (TxA2) The extent of TxA2 generated can be measured by radioimmunoassay (RIA) of its stable breakdown product Thromboxane B2 (TxB2) (see, JW Aiken, "Arachidonic Acid Metabolism and the Cardiovascular System" in Platelets and Prostaglandins in Cardiovascular Disease, J Mehta, P Mehta eds. Futura Publishing Co., Mt. Kisco, NY 1981). […] The platelet aggregation reaction was terminated at maximal aggregation or at four minutes, which ever occurred […], by the addition of 10 μM Indomethacin and 5.0 mM ethylenediaminetetraacetic acid (EDTA). Indomethacin and EDTA are commercially available reagents and were obtained from the Sigma Chemical Company. After adding the Indomethacin and EDTA reagents, the cuvettes containing the test sample were immediately placed on ice to cool. The test samples were then spun at a high speed in an Epindorf, Model 5415 micro-centrifuge, available from Brinkman Instruments, to sediment the platelets. Afterwards, plasma was removed from each sample. The TXB2 content was then assayed using commercial RIA kits available from Advanced Magnetics, Inc. of Massachussetts.

atherosclerotic plaque = settings: 2% cholesterol diet, balloon abrasion, 0.5% DHEA, cited from earlier work
[5] = system: oxidant injury in isolated rabbit lungs; settings: cited from earlier work
intracellular sulfatases = settings: through the action of intracellular sulfatases; cited from earlier work
aortic fatty streaks = settings: 0.5% cholesterol and 0.5% DHEA diet; two months; cited from earlier work
platelets [6] = test: In vitro turbidimetric arachidonic acid induced platelet aggregation in platelet rich plasma; type: cell-based, human
From the text: as §1, §2
The aggregometer was calibrated such that the test samples, which contained 250,000 platelets/μl fluid, allowed 0% light transmission while Platelet Poor Plasma, which is essentially devoid of platelets, allowed 100% light transmission. […] The time to the nadir in the aggregometer tracing is called the "LAG" time. After the LAG time has passed, the platelets undergo a rapid phase of aggregation.
The overall rate of aggregation is determined in part by the LAG time and in part by the rate of the rapid aggregation phase. While the LAG time can easily be determined from the turbidimetric spectra, the rate of rapid aggregation phase is technically difficult to measure. […] Therefore, the experiments discussed below have primarily utilized the T1/2MAX measurement to quantitatively analyze the affect of DHEA and DHEA-S as platelet aggregation inhibitors.
DHEA-S is available from the Sigma Chemical Company in powder form. In the in vitro experiments, blood samples were taken from several young healthy donors taking no medications. Platelet rich plasma was prepared as described above for each test sample and the concentration of platelets in the test samples was adjusted to 250,000 platelets/μl fluid. Aggregation of the platelets in the test samples was initiated with 0.2 to 0.4 […] of arachidonic acid (there was a variability in the amount of arachidonic acid used among donors; however, the amount used was near the minimum that would consistently initiate aggregation). In all aggregation experiments 0.3 cc of platelet rich plasma was used and the test sample volume placed in the aggregometer ranged between 10 μl to 30 μl.
In the first in vitro experiment, different concentrations of DHEA-S were added to test samples and the rate of aggregation was monitored after the addition of arachidonic acid. […]

[7] = human patients; cited from earlier work
[8] = system: glucose-6-phosphate dehydrogenase; settings: cited from earlier work
[9] = system: cardiovascular disease mortality; settings: increase in (endogenous) DHEA-S level of 100 μg/dL; adjusted for other risk factors; p <0.05; cited from earlier work

For `CC(=O)Oc1ccccc1C(=O)O` [aspirin], the initial platelet adhesion (platelets [1]) is listed as “does not inhibit initial platelet adhesion”, the “platelet's role in atherogenesis” value (platelets [1]) is listed as “does not appear to have an affect” and the “incidence of myocardial infarction” value (myocardial infarction) is listed as “reduce the incidence of myocardial infarction”.
For `O=[N+]([O-])c1cc(Cl)cc([N+](=O)[O-])c1` [CDNB, 1-chloro-3,5-dinitrobenzene], the “GSH content of platelets” value (platelets [2]) is listed as “chemically depletes GSH”, the “HMPS pathway stimulation by GSH-depleted platelets” value (platelets [2]) is listed as “do not stimulate the HMPS pathway” and the “cytoskeletal protein polymerization of GSH-depleted platelets” value (platelets [2]) is listed as “faster cytoskeletal protein oxidative polymerization but reversible aggregation”. The “sensitivity of GSH-depleted platelets to oxidants” value (platelets [2]) was “more sensitive to oxidants”, the “aggregation of GSH-depleted platelets” value (platelets [2]; higher inducer concentrations) was “aggregate normally” and the “aggregation of GSH-depleted platelets” value (platelets [2]; low inducer concentrations, depending on the inducer) was “increased or depressed aggregation”.
For `C[C@]12CC[C@H](O)CC1=CC[C@@H]1[C@@H]2CC[C@]2(C)C(=O)CC[C@@H]12` [DHEA, dehydroepiandrosterone], the “aggregation response, fifth DHEA patient” value (blood platelets; 300 mg DHEA per day orally) was “no change”, the “arachidonic acid induced platelet aggregation, one of the four responding subjects” value (blood platelets; 300 mg DHEA per day orally) was “completely inhibited” and the “patients who developed a delay in the rate of aggregation or an increase in the minimal concentration of arachidonic acid required to initiate aggregation” value (blood platelets; 300 mg DHEA per day orally) was “four of the five patients”. For the same molecule, the “T1/2MAX and LAG curves vs arachidonic acid concentration” value (blood platelets; one DHEA treated patient, second week vs baseline (FIG. 3)) was “shifted to the right and upward”, the concentration at 336 h [3] was 28.7 ± 13.9 ng/mL and the TxB2 produced ([4]; 3.3 μM DHEA) was 46.0 ± 4.0 pg/mL. The TxB2 produced ([4]; 6.7 μM DHEA) was 27.3 ± 1.1 pg/mL, the TxB2 produced ([4]; 10.0 μM DHEA) was 21.8 ± 1.8 pg/mL and the “TxB2 produced vs concentration” value ([4]; increasing concentrations of DHEA (FIG. 7)) was “proportional decline in TxB2 produced”. For the same molecule, the TxA2 synthesis ([4]; presence of added DHEA (FIG. 7)) was “net inhibition of TxA2 synthesis”, the “individual reduction of plaque size vs serum level of DHEA” value (atherosclerotic plaque) was “inversely proportional to the serum level of DHEA attained” and the “reduction in plaque size” value (atherosclerotic plaque; vs rabbits not receiving DHEA) was 50%. For the same molecule, the “thromboxane B2 production” value [5] was “unchanged”, the “lung edema and pulmonary hypertension” value ([5]; platelets pretreated with DHEA) was “augmentation of the lung edema and pulmonary hypertension” and the “interconversion of DHEA with its sulfate ester” value (intracellular sulfatases) was “readily interconvertible”. For the same molecule, the “reduction in fatty streak formation, chemical analysis” value (aortic fatty streaks) was 30%, the “reduction in fatty streak formation, planimetry of the lesions” value (aortic fatty streaks) was 40% and the “platelet aggregation on pre-incubation” value (platelets [6]; 3.3 μM, pre-incubation 0 to 5.0 minutes (FIG. 6)) was “prolong and eventually inhibit platelet aggregation”. The HDL cholesterol levels [7] was “without affecting HDL cholesterol levels”, the LDL cholesterol levels [7] was “lower LDL cholesterol levels” and the body fat mass [7] was “reduce body fat mass”. The muscle mass [7] was “increase muscle mass”, the “serum apilipoprotein B levels” value [7] was “lower serum apilipoprotein B levels” and the “tissue sensitivity to insulin” value [7] was “not affect tissue sensitivity to insulin”. The “inhibition of glucose-6-phosphate dehydrogenase” value [8] was “specific inhibitor”.
For `CC12CCC3C(CC=C4CC(OS(=O)(=O)O)CCC43C)C1CCC2=O` (stereo not drawn) [DHEA-S, dehydroepiandrosterone-sulfate], the “reduction in mortality from cardiovascular disease” value [9] is listed as 48%, the thromboxane production ([4]; treatment of blood with DHEA-S) is listed as “reduce thromboxane production” and the “T1/2MAX and LAG vs pre-incubation time” value (platelets [6]; 3.3 μM DHEA-S (FIG. 5)) is listed as “the greater the increase in T1/2MAX and LAG times”. The “T1/2MAX and LAG vs baseline” value (platelets [6]; 3.3 μM DHEA-S, 0 time pre-incubation (FIG. 5)) was “did increase the T1/2MAX and LAG from baseline”, the “aggregation after 5.0 minute pre-incubation” value (platelets [6]; 3.3 μM DHEA-S, 5.0 minutes, in most cases (FIG. 6)) was “complete inhibition of aggregation” and the “time for T1/2MAX and LAG” value (platelets [6]; 10.0 μM DHEA-S, three minutes incubation) was “not determinable”. The “platelet aggregation response to increasing DHEA-S concentration” value (platelets [6]; incubated three minutes before arachidonic acid, most test samples) was “dose dependent response” and the “T1/2MAX and LAG times with increasing concentrations” value (platelets [6]; three minutes incubation (FIG. 4)) was “increase with increasing concentrations of DHEA-S”.

Source: patent US5110810A, “Method of using dehydroepiandrosterone and dehydroepiandrosterone-sulfate as inhibitors of platelet aggregation” (Virginia Commonwealth University, priority 1991, dated 1992)
